# Reference: patent US11180452B2, “Methods and compositions for selectively inhibiting pathogenic microbes” (priority 2019, dated 2021)
# Where “and” joins values, the source holds several entries; their conditions need not be identical. Equal entries are not always repeated. Where two headings read alike, the source gives them in different places.
# Key:
# [1] = system: Burkholderia thailandensis Brett et al ATCC: 700388; assay: microbe, parasite or virus in culture; assay type: cell-based
# [2] = system: Francisella tularensis subsp. Holarctica Strain LVSR NR-597; assay: microbe, parasite or virus in culture; assay type: cell-based
# Bacillus thuringiensis = assay type: cell-based; conditions: Bacillus thuringiensis Berliner ATCC: 10792; for MIC: Bacillus thuringiensis, read-out: MIC
# Candida glabrata = Candida glabrata MIC / MFC; assay type: cell-based; conditions: Nakaseomyces glabratus, Candida glabrata #584 (Table 2); for MIC: read-out: MIC; for MFC: minimum fungicidal concentration, read-out: MFC
# Bacillus subtilis = Bacillus subtilis MIC / MBC; assay type: cell-based; conditions: for MBC: Bacillus subtilis NRRL: B-571, minimum bactericidal concentration; for MIC: Bacillus subtilis (Ehrenberg 1835) Cohn 1872 NRRL: B-571, read-out: MIC
# [3] = system: Francisella tularensis strains; assay: microbe, parasite or virus in culture; assay type: cell-based
# [4] = Toxicity in mice, body weight over 7 days; assay type: in vivo, Balb/c mice; conditions: for Animal body weight (kg) Day 0 / Animal body weight (kg) Day 1 / Animal body weight (kg) Day 2 / Animal body weight (kg) Day 3 / Animal body weight (kg) Day 4 / Animal body weight (kg) Day 5 / Animal body weight (kg) Day 6 / Animal body weight (kg) Day 7: mice, IP; for Animal body weight (kg) Day 0: Day 0, individual animals; for Animal body weight (kg) Day 1: Day 1, individual animals; for Animal body weight (kg) Day 2: Day 2, individual animals; for Animal body weight (kg) Day 3: Day 3, individual animals; for Animal body weight (kg) Day 4: Day 4, individual animals; for Animal body weight (kg) Day 5: Day 5, individual animals; for Animal body weight (kg) Day 6: Day 6, individual animals; for Animal body weight (kg) Day 7: Day 7, individual animals
# Text: The vehicle is 40% PEG300 solution in 0.9% NaCl. […] Thus, the compounds are useful for in vivo antimicrobial administration.
# [5] = read-out: F. tularensis BSL-3 MIC, Strain 100
# [6] = read-out: F. tularensis BSL-3 MIC, strain HN-63
# [7] = read-out: F. tularensis BSL-3 MIC, strain LVS
# [8] = read-out: F. tularensis BSL-3 MIC, strain MA00-2987
# [9] = read-out: F. tularensis BSL-3 MIC, strain MO #1
# [10] = read-out: F. tularensis BSL-3 MIC, strain MO #2
# [11] = read-out: F. tularensis BSL-3 MIC, strain MO #3
# [12] = read-out: F. tularensis BSL-3 MIC, strain OR-96
# [13] = read-out: F. tularensis BSL-3 MIC, strain SCHU S4
# [14] = read-out: F. tularensis BSL-3 MIC, strain WY-96
# [15] = read-out: MAX, highest MIC over the Francisella tularensis strains
# [16] = read-out: MIN, lowest MIC over the Francisella tularensis strains
structure (smiles),measurement,setting,value
"Cc1[nH]c2ccccc2c1Sc1ccc(Br)cc1 [Compound 172C, 3-((4-bromophenyl)thio)-2-methyl-1H-indole]",MIC,[1],> 50 µg/mL
"Brc1ccc(Sc2c[nH]c3cc(Br)ccc23)cc1 [Compound 174A, 6-bromo-3-((4-bromophenyl)thio)-1H-indole]",MIC,[2],1.56 µg/mL
same,MBC,Bacillus thuringiensis,3.13 µg/mL
same,MIC,Bacillus thuringiensis,3.13 µg/mL
same,MIC,[1],> 50 µg/mL
same,MIC,Candida glabrata,12.5 µg/mL
same,MBC,Bacillus subtilis,6.25 µg/mL
same,MIC,Bacillus subtilis; Bacillus subtilis,3.13 µg/mL
"Brc1ccc2[nH]cc(Sc3ccccc3)c2c1 [Compound 174AA, 5-bromo-3-(phenylthio)-1H-indole]",MIC,[2],4 µg/mL
same,MBC,Bacillus thuringiensis,16 µg/mL
same,MIC,Bacillus thuringiensis,8 µg/mL
same,MIC,[1],> 50 µg/mL
same,MFC,Candida glabrata,6.25 µg/mL
same,MIC,Candida glabrata,3.13 µg/mL
same,MBC,Bacillus subtilis,16 µg/mL
same,MIC,Bacillus subtilis; Bacillus subtilis,4 µg/mL
"Brc1ccc(Sc2c[nH]c3c(Br)cc(Br)cc23)cc1 [Compound 174AC, 5,7-dibromo-3-((4-bromophenyl)thio)-1H-indole]",MBC,Bacillus thuringiensis,50 µg/mL
same,MIC,Bacillus thuringiensis,8 µg/mL
same,MIC,[1],> 50 µg/mL
same,MIC,Candida glabrata,25 µg/mL
same,MBC,Bacillus subtilis,16 µg/mL
same,MIC,Bacillus subtilis; Bacillus subtilis,8 µg/mL
"Clc1c(Cl)c(Cl)c(Sc2c[nH]c3ccc(Br)cc23)c(Cl)c1Cl [Compound 174AD, 5-bromo-3-((perchlorophenyl)thio)-1H-indole]",MBC,Bacillus thuringiensis,> 50 µg/mL
same,MIC,Bacillus thuringiensis,32 µg/mL
same,MIC,[1],> 50 µg/mL
same,MIC,Bacillus subtilis,16 µg/mL
same,MBC,Bacillus subtilis,50 µg/mL
"Clc1cc2[nH]cc(Sc3ccc(Br)cc3)c2cc1Br [Compound 174AF, 5-bromo-3-((4-bromophenyl)thio)-6-chloro-1H-indole]",MIC,[2],4 µg/mL
same,MBC,Bacillus thuringiensis,4 µg/mL
same,MIC,Bacillus thuringiensis,2 µg/mL
same,MIC,[1],> 50 µg/mL
same,MIC,Candida glabrata,> 50 µg/mL
same,MBC,Bacillus subtilis,50 µg/mL
same,MIC,Bacillus subtilis; Bacillus subtilis,4 µg/mL
"Clc1cc(Cl)c(Sc2c[nH]c3ccc(Br)cc23)c(Cl)c1 [Compound 174AG, 5-bromo-3-((2,4,6-trichlorophenyl)thio)-1H-indole]",MBC,Bacillus thuringiensis,> 50 µg/mL
same,MIC,Bacillus thuringiensis,4 µg/mL
same,MIC,[1],> 50 µg/mL
same,MFC,Candida glabrata,> 50 µg/mL
same,MIC,Candida glabrata,6.25 µg/mL
same,MBC,Bacillus subtilis,> 50 µg/mL
same,MIC,Bacillus subtilis; Bacillus subtilis,4 µg/mL
"Brc1ccc2[nH]cc(Sc3cc(Br)c(Br)c(Br)c3)c2c1 [Compound 174AH, 5-bromo-3-((3,4,5-tribromophenyl)thio)-1H-indole]",MBC,Bacillus thuringiensis,> 50 µg/mL
same,MIC,Bacillus thuringiensis,8 µg/mL
same,MIC,[1],> 50 µg/mL
same,MIC,Candida glabrata,> 50 µg/mL
same,MBC,Bacillus subtilis,> 50 µg/mL
same,MIC,Bacillus subtilis; Bacillus subtilis,8 µg/mL
"Clc1ccccc1Sc1c[nH]c2ccc(Br)cc12 [Compound 174AJ, 5-bromo-3-((2-chlorophenyl)thio)-1H-indole]",MBC,Bacillus thuringiensis,1.56 µg/mL
same,MIC,Bacillus thuringiensis,0.78 µg/mL
same,MIC,[1],> 50 µg/mL
same,MFC,Candida glabrata,25 µg/mL
same,MIC,Candida glabrata,6.25 µg/mL
same,MBC,Bacillus subtilis,3.13 µg/mL
same,MIC,Bacillus subtilis; Bacillus subtilis,0.78 µg/mL
"Cc1[nH]c2ccc(O)cc2c1Sc1ccccc1N [Compound 174AK, 3-((2-aminophenyl)thio)-2-methyl-1H-indol-5-ol]",MIC,Bacillus thuringiensis,> 50 µg/mL
same,MIC,[1],> 50 µg/mL
same,MIC,Candida glabrata,> 50 µg/mL
same,MBC,Bacillus subtilis,> 50 µg/mL
same,MIC,Bacillus subtilis; Bacillus subtilis,50 µg/mL
"Brc1ccc(Sc2cnc3ccccn23)cc1 [Compound 174AN, 3-((4-bromophenyl)thio)imidazo[1,2-a]pyridine]",MIC,Candida glabrata,50 µg/mL
same,MIC,Bacillus subtilis; Bacillus subtilis,16 µg/mL
"Cc1[nH]c2ccc(O)cc2c1Sc1ccccc1O [Compound 174AO, 3-((2-hydroxyphenyl)thio)-2-methyl-1H-indol-5-ol]",MIC,[2],50 µg/mL
same,MIC,Candida glabrata,> 50 µg/mL
same,MIC,Bacillus subtilis; Bacillus subtilis,50 µg/mL
"Oc1ccc2[nH]cc(Sc3ccccc3O)c2c1 [Compound 174AP, 3-((2-hydroxyphenyl)thio)-1H-indol-5-ol]",MIC,[2],50 µg/mL
same,MIC,Candida glabrata,> 50 µg/mL
same,MIC,Bacillus subtilis; Bacillus subtilis,50 µg/mL
"COc1ccc2[nH]cc(Sc3ccccc3O)c2c1 [Compound 174AQ, 2-((5-methoxy-1H-indol-3-yl)thio)phenol]",MIC,[2],16 µg/mL
same,MIC,Candida glabrata,50 µg/mL
same,MIC,Bacillus subtilis; Bacillus subtilis,32 µg/mL
"Oc1ccc2[nH]cc(Sc3ccccc3Br)c2c1 [Compound 174AR, 3-((2-bromophenyl)thio)-1H-indol-5-ol]",MIC,[2],4 µg/mL
same,MIC,Candida glabrata,50 µg/mL
same,MIC,Bacillus subtilis; Bacillus subtilis,8 µg/mL
"COc1ccc2[nH]cc(Sc3ccccc3Br)c2c1 [Compound 174AS, 3-((2-bromophenyl)thio)-5-methoxy-1H-indole]",MIC,[2],1 µg/mL
same,MIC,Candida glabrata,> 50 µg/mL
same,MIC,Bacillus subtilis; Bacillus subtilis,2 µg/mL
"OCc1ccccc1Sc1c[nH]c2ccc(Br)cc12 [Compound 174AT, (2-((5-bromo-1H-indol-3-yl)thio)phenyl)methanol]",MIC,[2],8 µg/mL
same,MBC,Bacillus thuringiensis,16 µg/mL
same,MIC,Bacillus thuringiensis,8 µg/mL
same,MIC,Candida glabrata,50 µg/mL
same,MBC,Bacillus subtilis,16 µg/mL
same,MIC,Bacillus subtilis; Bacillus subtilis,8 µg/mL
"Fc1ccccc1Sc1c[nH]c2ccc(Br)cc12 [Compound 174AU, 5-bromo-3-((2-fluorophenyl)thio)-1H-indole]",MIC,[2],0.25 µg/mL
same,MIC50,[3],2 µg/mL
same,MIC,[3]; [5],8 µg/mL
same,MIC,[3]; [6],2 µg/mL
same,MIC,[3]; [7],2 µg/mL
same,MIC,[3]; [8],2 µg/mL
same,MIC,[3]; [9],1.83 µg/mL
same,MIC,[3]; [10],1.67 µg/mL
same,MIC,[3]; [11],2 µg/mL
same,MIC,[3]; [12],4 µg/mL
same,MIC,[3]; [13],4 µg/mL
same,MIC,[3]; [14],1.5 µg/mL
same,MIC,[3]; [15],8 µg/mL
same,MIC,[3]; [16],1.5 µg/mL
same,toxicity in mice by body weight,"[4]; 6-week-old Balb/c mice, body weight over 7 days, vehicle 40% PEG300 in 0.9% NaCl",did not have significant toxicity
same,Animal body weight (kg) Day 0,"[4]; 0.1 mg/kg, 0.1 mg/kg",0.026 kg and 0.023 kg and 0.024 kg
same,Animal body weight (kg) Day 1,"[4]; 0.1 mg/kg, 0.1 mg/kg",0.024 kg and 0.022 kg and 0.023 kg
same,Animal body weight (kg) Day 2,"[4]; 0.1 mg/kg, 0.1 mg/kg",0.025 kg and 0.022 kg and 0.023 kg
same,Animal body weight (kg) Day 3,"[4]; 0.1 mg/kg, 0.1 mg/kg",0.025 kg and 0.022 kg and 0.023 kg
same,Animal body weight (kg) Day 4,"[4]; 0.1 mg/kg, 0.1 mg/kg",0.025 kg and 0.022 kg and 0.023 kg
same,Animal body weight (kg) Day 5,"[4]; 0.1 mg/kg, 0.1 mg/kg",0.025 kg and 0.023 kg and 0.024 kg
same,Animal body weight (kg) Day 6,"[4]; 0.1 mg/kg, 0.1 mg/kg",0.025 kg and 0.022 kg and 0.023 kg
same,Animal body weight (kg) Day 7,"[4]; 0.1 mg/kg, 0.1 mg/kg",0.024 kg and 0.022 kg and 0.023 kg
same,Animal body weight (kg) Day 0,"[4]; 1 mg/kg, 1 mg/kg",0.026 kg and 0.022 kg and 0.025 kg
same,Animal body weight (kg) Day 1,"[4]; 1 mg/kg, 1 mg/kg",0.025 kg (2×) and 0.022 kg
same,Animal body weight (kg) Day 2,"[4]; 1 mg/kg, 1 mg/kg",0.026 kg and 0.022 kg and 0.025 kg
same,Animal body weight (kg) Day 3,"[4]; 1 mg/kg, 1 mg/kg",0.026 kg and 0.022 kg and 0.025 kg
same,Animal body weight (kg) Day 4,"[4]; 1 mg/kg, 1 mg/kg",0.026 kg and 0.023 kg and 0.025 kg
same,Animal body weight (kg) Day 5,"[4]; 1 mg/kg, 1 mg/kg",0.026 kg and 0.023 kg and 0.025 kg
same,Animal body weight (kg) Day 6,"[4]; 1 mg/kg, 1 mg/kg",0.025 kg (2×) and 0.023 kg
same,Animal body weight (kg) Day 7,"[4]; 1 mg/kg, 1 mg/kg",0.026 kg and 0.024 kg and 0.025 kg
same,Animal body weight (kg) Day 0,"[4]; 10 mg/kg, 10 mg/kg",0.024 kg (2×) and 0.025 kg
same,Animal body weight (kg) Day 1,"[4]; 10 mg/kg, 10 mg/kg",0.023 kg (2×) and 0.024 kg
same,Animal body weight (kg) Day 2,"[4]; 10 mg/kg, 10 mg/kg",0.023 kg (2×) and 0.025 kg
same,Animal body weight (kg) Day 3,"[4]; 10 mg/kg, 10 mg/kg",0.024 kg and 0.023 kg and 0.025 kg
same,Animal body weight (kg) Day 4,"[4]; 10 mg/kg, 10 mg/kg",0.023 kg (2×) and 0.025 kg
same,Animal body weight (kg) Day 5,"[4]; 10 mg/kg, 10 mg/kg",0.023 kg (2×) and 0.026 kg
same,Animal body weight (kg) Day 6,"[4]; 10 mg/kg, 10 mg/kg",0.022 kg and 0.023 kg and 0.026 kg
same,Animal body weight (kg) Day 7,"[4]; 10 mg/kg, 10 mg/kg",0.022 kg and 0.023 kg and 0.026 kg
same,MBC,Bacillus thuringiensis,2 µg/mL
same,MIC,Bacillus thuringiensis,1 µg/mL
same,MFC,Candida glabrata,50 µg/mL
same,MIC,Candida glabrata,3.13 µg/mL
same,MBC,Bacillus subtilis,2 µg/mL
same,MIC,Bacillus subtilis; Bacillus subtilis,1 µg/mL
"Cc1ccccc1Sc1c[nH]c2ccc(Br)cc12 [Compound 174AY, 5-bromo-3-(o-tolylthio)-1H-indole]",MIC,[2],1 µg/mL
same,MIC50,[3],3.83 µg/mL
same,MIC,[3]; [5],4 µg/mL
same,MIC,[3]; [6],2 µg/mL
same,MIC,[3]; [7],4 µg/mL
same,MIC,[3]; [8],3.67 µg/mL
same,MIC,[3]; [9],2 µg/mL
same,MIC,[3]; [10],3.33 µg/mL
same,MIC,[3]; [11],3.67 µg/mL
same,MIC,[3]; [12],4 µg/mL
same,MIC,[3]; [13],4 µg/mL
same,MIC,[3]; [14],4 µg/mL
same,MIC,[3]; [15],4 µg/mL
same,MIC,[3]; [16],2 µg/mL
same,MBC,Bacillus thuringiensis,4 µg/mL
same,MIC,Bacillus thuringiensis,2 µg/mL
same,MBC,Bacillus subtilis,2 µg/mL
same,MIC,Bacillus subtilis; Bacillus subtilis,1 µg/mL
